Assay results taken from patent US20020072081A1, “Geranylgeranyl transferase inhibitor screening assay” (priority 2000, published 2002).

Target: T1, GGTase-I (Rattus norvegicus, UniProt P53610)
T1 construct: endogenous in cells; host or cells: H-ras transformed Rat1 fibroblast cell line (Hras2b/rat1)
Assay: Cell Radiotracer Assay of Geranylgeranyl Transferase Inhibitor (CRAGGTI), radioligand binding to living cells
Details: H-ras transformed Rat1 fibroblast cell line; specific binding, non-specific determined with 1000-fold molar excess of unlabeled Compound A; read-out: concentration of [^3H] Compound A that achieves half maximal binding to cells (apparent Kd)
Protocol: In an embodiment of the instant invention, the assay involves growing a cell line in 24-well cell culture plates as an adherent population of cells until the cell culture is nearly confluent. The concentration of radioligand required to achieve half-maximal specific binding to cells is determined by adding the radioligand at varying concentrations to cell culture media, and incubating this mixture with the cells for a defined period of time. To determine the level of non-specific binding of the radioligand, excess unlabeled GGTase-I inhibitor (unlabeled radioligand) is added to some of the wells. After incubation, the unbound radioligand is removed from the cells. […] The cell layer is then solubilized and analyzed. Having determined the concentration of radioligand that achieves half maximal binding to cells, one can determine the relative IC50s of test compounds by incubating varying concentrations of test compounds with the appropriate concentration of radioligand, and perform the cell incubations, washes, and solubilization steps as described. […]
Briefly, the method involves growing a cell line in 24-well cell culture plates as an adherent population of cells until the cell culture is nearly confluent. […] Compound A required to achieve half-maximal specific binding to cells is determined by adding [^3H] […] Having determined the concentration of [^3H] […]

Kd: ~0.3 nM
SMILES: [3H]C(O)(CN1CCN(Cc2cncn2Cc2ccc(C#N)cc2)CC1=O)C12CC3CC(CC(C3)C1)C2 (stereo not shown) [[^3H] Compound A, [^3H]-R/S 1-(4-Cyanobenzyl)-5-[1-(2-hydroxy-2-(adamant-1-yl)ethyl)-2-oxo-piperazin-4-vl-methyl]imidazole]
